Patent US11746103B2, “ALK-5 inhibitors and uses thereof” (Sumitomo Pharma Oncology, Inc., priority 2020, dated 2023)
pIC50: −log10 of the molar value.

Assays:
[1] = target: ALK-5 (Homo sapiens (Human), UniProt P36897); test: LanthaScreen Eu Kinase Binding Assay, ALK-5; settings: for pIC50: read-out: Kinase Inhibition: ALK5 IC50
Procedure: Activity determinations and selectivity were conducted by Thermo Fisher Scientific “SelectScreen™ Biochemical Kinase Profiling Service” using their “LanthaScreen™ Eu Kinase Binding Assay Screening” (www.thermofisher.com/selectscreen). Binding of an Alexa Fluor™ conjugate or “tracer” to a kinase is detected by addition of a Eu-labeled anti-tag antibody. Binding of the tracer and antibody to a kinase results in a high degree of FRET, whereas displacement of the tracer with a kinase inhibitor results in a loss of FRET. This assay is carried out by mixing the compound tested with the reagents and reading, no development step is required. Life Technologies' Kinase Tracers are based on ATP-competitive kinase inhibitors, making them suitable for detection of any compounds that bind to the ATP site. Inhibitors that bind the ATP site include both Type I kinase inhibitors, which bind solely to the ATP site, and Type II inhibitors (e.g., Gleevec®/Imatinib, Sorafenib, BIRB-796), which bind to both the ATP site and a second site often referred to as the allosteric site. […] For 10 point titrations, 3-fold serial dilutions are conducted from the starting concentration (see Table 2 below). [table] All Kinase/Antibody Mixtures are diluted to a 2× working concentration in the specified kinase buffer. The 4× AlexaFluor labeled Tracer is prepared in Kinase Buffer. Bar-coded, low volume, white 384-well plate (Greiner Cat. #784207) […] 2. 3.84 μL—Kinase Buffer […] 4. 4.0 μL—4× Tracer 5. 30-second plate shake 6. 60-minute incubation at room temperature 7. […] The LanthaScreen Eu Kinase Binding Assay data is analyzed using the equations in Table 3 for each set of data points. [table] Data generated were plotted using the graphing software XLfit from IDBS. The dose response curve is curve fit to model number 205.

[2] = system: TGF-beta induced SMAD signaling; test: RDSR (RD SMAD reporter) Cellular Reporter Assay; assay type: cell-based; settings: Homo sapiens; 200 pg/ml rhTGF-beta1, 24 h; read-out: RD-SMAD reporter activity
Description: TGF-β signaling is triggered when the activated TGF-β homodimer binds to the TGF-β receptor 2, which in turn leads to the recruitment and phosphorylation of TGF-β receptor 1 (ALK5). Activated TGF-β receptor 1 phosphorylates the signal transduction molecules SMAD2 and SMAD3. These bind to common mediator SMAD4 and translocate to the nucleus where they bind to short conserved DNA sequences called the SMAD binding element and induce the transcription of various target genes. […] Certain example compounds were also or alternatively assayed using the RDSR Cellular Reporter Assay. Overview and Design: The RD SMAD reporter (RDSR) cell line was generated by stabily integrating the SMAD cellular reporter plasmid (Promega, pGL4.48[luc2P/SBE/Hygro]) into the human rhabdomyosarcoma cell line RD (ATCC, CCL-136). Once SMAD signaling is triggered, with, for example, the addition of TGF-β 1, receptor activated SMADs bind the SMAD binding elements (SBEs) leading to the expression of intracellular luciferase. To determine the potency of compounds at inhibiting TGF-beta induced SMAD signaling, the RDSR reporter system was utilized. The rhabdomyosarcoma line RD (ATCC, CCL-136) was transfected with a SMAD reporter vector (Promega, E3671) and a polyclonal stable cell line was selected using hygromycin B. The transfected vector contains three copies of a SMAD-binding element (SBE) that drive transcription of the luciferase reporter gene luc2P (Photinus pyralis). luc2P is a synthetically-derived luciferase sequence with humanized codon optimization that is designed for high expression and reduced anomalous transcription. The luc2P gene contains hPEST, a protein destabilization sequence, which allows luc2P protein levels to respond more quickly than those of luc2 to induction of transcription. The intracellular luciferase is quantified by the addition of equal volume (100 μl) of ONE-GLO substrate (Promega, E6120) and read within ten minutes on the Envision plate reader. The stable RDSR cell line was tested by evaluating the response to human TGF-β1 (R&D Systems, 7754-BH-005) as well as human myostatin (R&D Systems, 788-G8-010/CF) in a concentration dependent manner after twenty-four hours of stimulation. […] For compound evaluation, the tool drugs Galunisertib and Vactosertib were included as positive controls. The tool drugs and the compounds of the invention being tested were all incubated with cells for one hour at 37° C. before stimulation with 200 pg/ml rhTGF-beta1 for twenty-four hours. The activity of the reporter was determined with the addition of ONE-GLO (Promega) substrate and luminescence counts collected on the Envision plate reader (Perkin Elmer). […] The activity of compounds of the invention as determined using this method are reported in the third column of Table 1, below.

Sequence of ALK-5 (P36897 34-503): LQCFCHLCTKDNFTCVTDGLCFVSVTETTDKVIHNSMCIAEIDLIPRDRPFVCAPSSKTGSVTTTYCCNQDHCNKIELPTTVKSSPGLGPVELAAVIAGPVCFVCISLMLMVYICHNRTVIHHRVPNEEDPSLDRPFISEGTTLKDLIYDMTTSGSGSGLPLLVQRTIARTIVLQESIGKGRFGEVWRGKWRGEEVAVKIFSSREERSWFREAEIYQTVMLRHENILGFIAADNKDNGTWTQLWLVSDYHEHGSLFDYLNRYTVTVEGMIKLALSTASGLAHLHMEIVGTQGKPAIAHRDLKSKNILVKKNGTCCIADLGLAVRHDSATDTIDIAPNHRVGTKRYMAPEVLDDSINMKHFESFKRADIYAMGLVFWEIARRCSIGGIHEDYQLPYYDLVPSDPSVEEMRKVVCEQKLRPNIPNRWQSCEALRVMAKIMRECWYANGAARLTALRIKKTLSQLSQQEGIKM

| Compound | Kinase Selectivity: ALK2 IC50/ ALK5 IC50 [1] | pIC50 [1] | pIC50 [2] |
| --- | --- | --- | --- |
| Cc1cccc2c(Nc3nc(Nc4ccc(N5CCN(C)CC5)cc4)ncc3F)cnnc12 [EX-32, 5-fluoro-N4-(8-methylcinnolin-4-yl)-N2-(4-(4-methylpiperazin-1-yl)phenyl)pyrimidine-2,4-diamine] | (++) (10<ALK2/ALK5<100=[++]) | 7.00 to 8.00 | 6.00 to 7.00 |
| Cc1cccc2c(Nc3ccnc(Nc4cc(F)cc(CN5CCN(C)CC5)c4)n3)cnnc12 [EX-42, N2-(3-fluoro-5-((4-methylpiperazin-1-yl)methyl)phenyl)-N4-(8-methylcinnolin-4-yl)pyrimidine-2,4-diamine] | (+) (≤10=[+]) | > 8.00 | 6.00 to 7.00 |
| Cc1cccc2c(Nc3ccnc(Nc4cc(F)cc(CC5CCN(C)CC5)c4)n3)cnnc12 [EX-43, N2-(3-fluoro-5-((1-methylpiperidin-4-yl)methyl)phenyl)-N4-(8-methylcinnolin-4-yl)pyrimidine-2,4-diamine] | (+) (≤10=[+]) | > 8.00 | 6.00 to 7.00 |
| Cc1cccc2c(Nc3ccnc(Nc4cc(N5CCOCC5)cc(C(F)(F)F)c4)n3)cnnc12 [EX-39, N4-(8-methylcinnolin-4-yl)-N2-(3-morpholino-5-(trifluoromethyl)phenyl)pyrimidine-2,4-diamine] | (+) (≤10=[+]) | > 8.00 | 6.00 to 7.00 |
| c1cc(Nc2nccc(Nc3cnnc4c(C5CC5)cccc34)n2)cc(N2CCOCC2)c1 [EX-57, N4-(8-cyclopropylcinnolin-4-yl)-N2-(3-morpholinophenyl)pyrimidine-2,4-diamine] | (++) (10<ALK2/ALK5<100=[++]) | > 8.00 | > 7.00 |
| Cc1c(F)ccc2c(Nc3ccnc(Nc4ccc(N5CCN(C)CC5)cc4)n3)cnnc12 [EX-01, N4-(7-fluoro-8-methylcinnolin-4-yl)-N2-(4-(4-methyl-piperazin-1-yl)-phenyl)-pyrimidine-2,4-diamine] | (++) (10<ALK2/ALK5<100=[++]) | > 8.00 | > 7.00 |
| Cc1cccc2c(Nc3ccnc(Nc4ccc(N5CCN(C)CC5)cc4F)n3)cnnc12 [EX-21, N2-(2-fluoro-4-(4-methyl-piperazin-1-yl)phenyl)-N4-(8-methyl-cinnolin-4-yl)-pyrimidine-2,4-diamine] | (++) (10<ALK2/ALK5<100=[++]) | 7.00 to 8.00 | 6.00 to 7.00 |
| Cc1nnc2c(C)cccc2c1Nc1ccnc(Nc2ccc(N3CCOCC3)cc2)n1 [EX-52, N4-(3,8-dimethylcinnolin-4-yl)-N2-(4-morpholinophenyl)pyrimidine-2,4-diamine] | (+) (≤10=[+]) | > 8.00 | 6.00 to 7.00 |
| Cc1cccc2c(Nc3ccnc(Nc4cc(CN5CCNCC5)ccc4F)n3)cnnc12 [EX-03, N2-(2-fluoro-5-(piperazin-1-yl-methyl)phenyl)-N4-(8-methyl-cinnolin-4-yl)-pyrimidine-2,4-diamine] | (++) (10<ALK2/ALK5<100=[++]) | > 8.00 | 6.00 to 7.00 |
| Cc1nnc2c(C)cccc2c1Nc1ccnc(Nc2cccc(N3CCOCC3)c2)n1 [EX-51, N4-(3,8-dimethylcinnolin-4-yl)-N2-(3-morpholinophenyl)pyrimidine-2,4-diamine] | (+) (≤10=[+]) | > 8.00 | 6.00 to 7.00 |

Now from value to compound:

| Kinase Selectivity: ALK2 IC50/ ALK5 IC50 [1] | pIC50 [1] | pIC50 [2] | Compound |
| --- | --- | --- | --- |
| (++) (10<ALK2/ALK5<100=[++]) | > 8.00 | 6.00 to 7.00 | Cc1cccc2c(Nc3ccnc(Nc4ccc(CC5CCNCC5)cc4)n3)cnnc12 [EX-05, N4-(8-methylcinnolin-4-yl)-N2-(4-(piperidin-4-ylmethyl)pheny)pyrimidine-2,4-diamine] |
| (+) (≤10=[+]) | > 8.00 | > 7.00 | Cc1cccc2c(Nc3ccnc(Nc4cccc(CN5CCNCC5)c4)n3)cnnc12 [EX-31, N4-(8-methylcinnolin-4-yl)-N2-(3-(piperazin-1-ylmethyl)phenyl)pyrimidine-2,4-diamine] |
| (+++) (100≤ALK2/ALK5=[+++]) | > 8.00 | 6.00 to 7.00 | Cc1cccc2c(Nc3ccnc(Nc4ccc(C5CCCCC5)cc4)n3)cnnc12 [EX-56, N2-(4-cyclohexylphenyl)-N4-(8-methylcinnolin-4-yl)pyrimidine-2,4-diamine] |
| (+++) (100≤ALK2/ALK5=[+++]) | > 8.00 | > 7.00 | Cc1cccc2c(Nc3ccnc(Nc4ccc(N5CCNCC5)cc4F)n3)cnnc12 [EX-22, N2-(2-fluoro-4-(piperazin-1-yl)phenyl)-N4-(8-methylcinnolin-4-yl)pyrimidine-2,4-diamine] |
| (++) (10<ALK2/ALK5<100=[++]) | > 8.00 | > 7.00 | Cc1cccc2c(Nc3ccnc(Nc4ccc(N5CCN(C)CC5)nc4)n3)cnnc12 [EX-23, N4-(8-methylcinnolin-4-yl)-N2-(6-(4-methylpiperazin-1-yl)pyridin-3-yl)pyrimidine-2,4-diamine] |
| (++) (10<ALK2/ALK5<100=[++]) | > 8.00 | > 7.00 | Cc1cccc2c(Nc3ccnc(Nc4ccc(N5CCNCC5)cc4)n3)cnnc12 [EX-48, N4-(8-methylcinnolin-4-yl)-N2-(4-(piperazin-1-yl)phenyl)pyrimidine-2,4-diamine] |
| (++) (10<ALK2/ALK5<100=[++]) | > 8.00 | > 7.00 | Cc1cccc2c(Nc3ccnc(Nc4ccc(CN5CCOCC5)cc4)n3)cnnc12 [EX-25, N4-(8-methylcinnolin-4-yl)-N2-(4-(morpholinomethyl)phenyl)pyrimidine-2,4-diamine] |
| (+) (≤10=[+]) | > 8.00 | > 7.00 | Cc1cccc2c(Nc3ccnc(Nc4cccc(S(N)(=O)=O)c4)n3)cnnc12 [EX-35, 3-((4-((8-methylcinnolin-4-yl)amino)-pyrimidin-2-yl)amino)benzenesulfonamide] |
| (++) (10<ALK2/ALK5<100=[++]) | > 8.00 | > 7.00 | Cc1cccc2c(Nc3ccnc(Nc4ccc(N5CCN(C)CC5)c(F)c4)n3)cnnc12 [EX-53, N2-(3-fluoro-4-(4-methylpiperazin-1-yl)phenyl)-N4-(8-methylcinnolin-4-yl)pyrimidine-2,4-diamine] |
| (+) (≤10=[+]) | > 8.00 | > 7.00 | Cc1cccc2c(Nc3ccnc(Nc4cccc(CN5CCN(C)CC5)c4)n3)cnnc12 [EX-04, N4-(8-methyl-cinnolin-4-yl)-N2-(3-((4-methyl-piperazin-1-yl)methyl)phenyl)pyrimidine-2,4-diamine] |
| (++) (10<ALK2/ALK5<100=[++]) | > 8.00 | > 7.00 | Cc1cccc2c(Nc3ccnc(Nc4ccc(N5CCCCC5)cc4)n3)cnnc12 [EX-55, N4-(8-methylcinnolin-4-yl)-N2-(4-(piperidin-1-yl)phenyl)pyrimidine-2,4-diamine] |
